PubChem BioAssay AID330 (DTP/NCI, 2004)
Where “and” joins values, the source holds several entries; their conditions need not be identical. Identical values can stand only once. Toxic doses and inconclusive results are not listed. Rule for the calls: active = survival T/C of 150% or more; inactive = T/C below 125% in these data. Peptide text beside a SMILES is read from it. * marks the point of attachment. Cbz = O=C(OCc1ccccc1)*; Bn = c1ccc(C*)cc1

System: P388 leukemia ip, CD2F1 mice, survival T/C
Assay: NCI In Vivo Anticancer Drug Screen. Data for tumor model P388 Leukemia (intraperitoneal) in CD2F1 (CDF1) mice
Conditions: endpoint: median survival time, higher = longer survival
How it was run: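 Mice carrying the transplanted tumor received test compound or vehicle. Survival was recorded in each group, and the value is the treated-group measurement divided by that of the vehicle-treated control group.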

[1] = dose: 50.0 mg/kg/injection, schedule: Q01DX009 (ip), vehicle: saline with Tween-80
[2] = dose: 50.0 mg/kg/injection, schedule: Q01DX005 (ip), vehicle: Klucel (hydroxypropylcellulose) (HPC)
[3] = dose: 100.0 mg/kg/injection, schedule: Q01DX005 (ip), vehicle: Klucel (hydroxypropylcellulose) (HPC)
[4] = dose: 200.0 mg/kg/injection, schedule: Q01DX005 (ip), vehicle: Klucel (hydroxypropylcellulose) (HPC)
[5] = dose: 3.12 mg/kg/injection, schedule: Q01DX009 (ip), vehicle: saline
[6] = dose: 6.25 mg/kg/injection, schedule: Q01DX009 (ip), vehicle: saline
[7] = dose: 50.0 mg/kg/injection, schedule: Q01DX009 (ip), vehicle: Klucel (hydroxypropylcellulose) (HPC)
[8] = dose: 100.0 mg/kg/injection, schedule: Q01DX009 (ip), vehicle: Klucel (hydroxypropylcellulose) (HPC)
[9] = dose: 200.0 mg/kg/injection, schedule: Q01DX009 (ip), vehicle: Klucel (hydroxypropylcellulose) (HPC)
[10] = dose: 25.0 mg/kg/injection, schedule: Q01DX009 (ip), vehicle: saline with Tween-80
[11] = dose: 60.0 mg/kg/injection, schedule: Q01DX005 (ip), vehicle: saline
[12] = dose: 120.0 mg/kg/injection, schedule: Q01DX005 (ip), vehicle: saline
[13] = dose: 240.0 mg/kg/injection, schedule: Q01DX005 (ip), vehicle: saline
[14] = dose: 60.0 mg/kg/injection, schedule: Q01DX005 (ip), vehicle: saline with Tween-80
[15] = dose: 120.0 mg/kg/injection, schedule: Q01DX005 (ip), vehicle: saline with Tween-80
[16] = dose: 240.0 mg/kg/injection, schedule: Q01DX005 (ip), vehicle: saline with Tween-80
[17] = dose: 12.5 mg/kg/injection, schedule: Q01DX005 (ip), vehicle: Klucel (hydroxypropylcellulose) (HPC)
[18] = dose: 25.0 mg/kg/injection, schedule: Q01DX005 (ip), vehicle: Klucel (hydroxypropylcellulose) (HPC)
[19] = dose: 100.0 mg/kg/injection, schedule: Q01DX005 (ip), vehicle: saline with Tween-80

Measured: T/C

ClC(Cl)(Cl)C1OCCO1
inactive: [1] 95 % of control | dose: 100.0 mg/kg/injection, schedule: Q01DX009 (ip), vehicle: saline with Tween-80 104 % of control | dose: 100.0 mg/kg/injection, schedule: Q04DX003 (ip), vehicle: saline with Tween-80 100 % of control | dose: 200.0 mg/kg/injection, schedule: Q01DX009 (ip), vehicle: saline with Tween-80 90 % of control | dose: 200.0 mg/kg/injection, schedule: Q04DX003 (ip), vehicle: saline with Tween-80 90 % of control | dose: 400.0 mg/kg/injection, schedule: Q04DX003 (ip), vehicle: saline with Tween-80 95 % of control

CCOP(=S)(N/N=C(\C)c1ccncc1)OCC
inactive: [2] 112 % of control | [3] 107 % of control | [4] 115 % of control

CN(C)c1ccc(N=O)cc1
inactive: dose: 1.56 mg/kg/injection, schedule: Q01DX009 (ip), vehicle: saline 110 % of control | [5] 110 % of control | [6] 94 % of control

N#CCCSc1nnc(N)s1
inactive: [7] 108 % of control | [8] 103 % of control | [9] 104 % of control | dose: 400.0 mg/kg/injection, schedule: Q01DX009 (ip), vehicle: Klucel (hydroxypropylcellulose) (HPC) 100 % of control

S=C(S)NN1CCCC1
inactive: dose: 12.5 mg/kg/injection, schedule: Q01DX009 (ip), vehicle: saline with Tween-80 100 % of control | [10] 100 % of control | [1] 100 % of control

O=C1CC2(CCCC2)CC(=O)N1c1ccc(-c2ccc(N3C(=O)CC4(CCCC4)CC3=O)cc2)cc1
inactive: [7] 100 % of control | [8] 94 % of control

CSc1c(Cl)cc(Cl)cc1C(=O)O
inactive: dose: 16.5 mg/kg/injection, schedule: Q01DX009 (ip), vehicle: saline with Tween-80 100 % of control and 110 % of control | [10] 105 % of control and 106 % of control | dose: 37.5 mg/kg/injection, schedule: Q01DX009 (ip), vehicle: saline with Tween-80 117 % of control and 97 % of control | dose: 50.0 mg/kg/injection, schedule: Q01DX009 (ip), vehicle: saline + alcohol 112 % of control | dose: 100.0 mg/kg/injection, schedule: Q01DX009 (ip), vehicle: saline + alcohol 110 % of control | dose: 200.0 mg/kg/injection, schedule: Q01DX009 (ip), vehicle: saline + alcohol 112 % of control

Cc1ccc(-n2c(O)c(N=Nc3ccccc3Cl)c(=O)n(-c3ccc(Br)cc3)c2=S)cc1
inactive: dose: 100.0 mg/kg/injection, schedule: Q01DX001 (ip), vehicle: saline with Tween-80 98 % of control | dose: 200.0 mg/kg/injection, schedule: Q01DX001 (ip), vehicle: saline with Tween-80 101 % of control | dose: 400.0 mg/kg/injection, schedule: Q01DX001 (ip), vehicle: saline with Tween-80 96 % of control

NNC(=O)COCC(=O)NN
inactive: dose: 25.0 mg/kg/injection, schedule: Q01DX009 (ip), vehicle: Klucel (hydroxypropylcellulose) (HPC) 106 % of control | [7] 100 % of control | [8] 104 % of control | [9] 100 % of control

OCCOc1ccc(OCCO)c2ccccc12
inactive: [2] 103 % of control | [3] 104 % of control | [4] 100 % of control

CC1(C)NC(=O)N(CCCCCCN2C(=O)NC(C)(C)C2=O)C1=O
inactive: [2] 94 % of control | [3] 102 % of control | dose: 400.0 mg/kg/injection, schedule: Q01DX005 (ip), vehicle: Klucel (hydroxypropylcellulose) (HPC) 90 % of control

CCOC(=O)C12OC(=O)CC(NC1C(=O)OC(C)(C)C)C2O (configuration not stated)
inactive: [11] 98 % of control | [12] 91 % of control | [13] 104 % of control

C/C(=C\COc1ccc2ccc(=O)oc2c1)C1=CC(=O)C(C)(C)O1
inactive: dose: 266.0 mg/kg/injection, schedule: Q01DX009 (ip), vehicle: saline with Tween-80 115 % of control | dose: 400.0 mg/kg/injection, schedule: Q01DX009 (ip), vehicle: saline with Tween-80 114 % of control | dose: 600.0 mg/kg/injection, schedule: Q01DX009 (ip), vehicle: saline with Tween-80 123 % of control

CC1=CC(=C2C(=O)c3ccccc3C2=O)C=C(C)O1
inactive: [2] 101 % of control | dose: 60.0 mg/kg/injection, schedule: Q01DX005 (ip), vehicle: Klucel (hydroxypropylcellulose) (HPC) 95 % of control | [3] 89 % of control | dose: 120.0 mg/kg/injection, schedule: Q01DX005 (ip), vehicle: Klucel (hydroxypropylcellulose) (HPC) 90 % of control | [4] 88 % of control | dose: 240.0 mg/kg/injection, schedule: Q01DX005 (ip), vehicle: Klucel (hydroxypropylcellulose) (HPC) 87 % of control

CCOP(=S)(N/N=C/c1ccc(Cl)s1)OCC
inactive: [2] 115 % of control | [3] 110 % of control | [4] 114 % of control

CCCCCCCCCCCCCCCCCC[N+](C)(C)C
inactive: [5] 118 % of control

COC(=O)CCP(CCC(=O)OC)c1ccccc1
inactive: [14] 99 % of control | [15] 99 % of control | [16] 103 % of control

N/N=C(/N)[Se]
inactive: [6] 101 % of control | dose: 12.5 mg/kg/injection, schedule: Q01DX009 (ip), vehicle: saline 90 % of control

C1CCC2[N-]CC3CCCCC3[N-]CC3CCCCC3[N-]CC3CCCCC3[N-]CC2C1.[Ni+2].[O-][Cl+3]([O-])([O-])O (configuration not stated)
inactive: [6] 96 % of control

Nc1nnc(-c2cccc(-c3nnc(N)o3)c2)o1
inactive: [11] 98 % of control | [12] 99 % of control | [13] 102 % of control

CC(C)CC(NC(=O)C(CSCc1ccccc1)NC(=O)OCc1ccccc1)C(N)=O (configuration not stated) (Cbz-Cys(Bn)-Leu-NH2; configuration not given here)
inactive: dose: 6.25 mg/kg/injection, schedule: Q01DX005 (ip), vehicle: Klucel (hydroxypropylcellulose) (HPC) 102 % of control | [17] 86 % of control | [18] 86 % of control

COC(=O)[C@H]1[C@H]2C[C@@H]3c4[nH]c5cc(OC)ccc5c4CCN3C[C@H]2C[C@@H](OC(=O)CC(C)=O)[C@@H]1OC
inactive: dose: 50.0 mg/kg/injection, schedule: Q01DX005 (ip), vehicle: saline with Tween-80 95 % of control | [19] 91 % of control | dose: 200.0 mg/kg/injection, schedule: Q01DX005 (ip), vehicle: saline with Tween-80 88 % of control

CC1OC(C)(C)OC1C(=O)OCc1ccccc1 (configuration not stated)
inactive: dose: 25.0 mg/kg/injection, schedule: Q01DX005 (ip), vehicle: water 96 % of control | dose: 50.0 mg/kg/injection, schedule: Q01DX005 (ip), vehicle: water 105 % of control | dose: 100.0 mg/kg/injection, schedule: Q01DX005 (ip), vehicle: water 100 % of control | dose: 200.0 mg/kg/injection, schedule: Q01DX005 (ip), vehicle: water 100 % of control | dose: 400.0 mg/kg/injection, schedule: Q01DX005 (ip), vehicle: water 100 % of control

CN1CCOC(=O)C(C#N)=C1c1ccccc1
inactive: [14] 110 % of control | [15] 108 % of control | [16] 98 % of control

Cn1c2ccccc2c(=Nc2ccc(S(N)(=O)=O)cc2)c2ccccc21
inactive: [19] 97 % of control

O=C1c2ccccc2C(=O)N1C(=NCc1ccccc1)c1ccccc1
inactive: dose: 100.0 mg/kg/injection, schedule: Q04DX003 (ip), vehicle: Klucel (hydroxypropylcellulose) (HPC) 104 % of control | dose: 200.0 mg/kg/injection, schedule: Q04DX003 (ip), vehicle: Klucel (hydroxypropylcellulose) (HPC) 104 % of control | dose: 400.0 mg/kg/injection, schedule: Q04DX003 (ip), vehicle: Klucel (hydroxypropylcellulose) (HPC) 109 % of control

CC(C)C1=C(O)C2=C(C(=O)C1=O)C1(C)CCCC(C)(C)C1C(O)C2OC=O (configuration not stated)
inactive: [17] 93 % of control | [18] 109 % of control | [2] 107 % of control | [3] 111 % of control

CC(C)C12CCC3(CCC4C(C)(C(=O)O)CCCC4(C)C3C1)C(CN)C2 (configuration not stated)
inactive: [18] 101 % of control | [2] 106 % of control | [3] 99 % of control | [4] 100 % of control

C#CCN1CCCCC1
inactive: dose: 12.5 mg/kg/injection, schedule: Q01DX005 (ip), vehicle: saline 105 % of control | dose: 25.0 mg/kg/injection, schedule: Q01DX005 (ip), vehicle: saline 100 % of control | dose: 50.0 mg/kg/injection, schedule: Q01DX005 (ip), vehicle: saline 100 % of control and 107 % of control

COC(=O)CCCCCCCCCCCCCCCCC(=O)O
inactive: [7] 99 % of control | [8] 94 % of control | [9] 93 % of control
